Assay results published in patent US20260151316A1, “FIBRILLIN PRODUCTION PROMOTER, COSMETIC COMPOSITION OR SKIN TOPICAL AGENT, ORALLY ADMINISTERED AGENT, AND ELASTIN FIBER PRODUCTION PROMOTER” (YAMASA CORPORATION, priority 2022, published 2026).

What was measured:
[1] = tested on: Fibrillin-1 (FBN-1) mRNA in normal human fibroblasts; experiment: FBN-1 mRNA expression by real time PCR in fibroblasts treated with culture supernatant from three-dimensional cultured epidermis; format: cell-based; conditions: CMP, 2Na 1.0 and 2.0 (w/v %) applied to three-dimensional cultured epidermis; supernatant on NHDF; GAPDH as control
Protocol: The mRNA expression level of Fibrillin 1(FBN1 ), a factor related to elastin synthesis, was quantified by real-time PCR. Three-dimensional cultured epidermis (LabCyte EPI MODEL 24; manufactured by J TEC) was set in a 24-well plate to which 500 μL of the attached assay medium was added, and conditioned overnight at 37° C. 50 μL of sample-containing PBS (−) was applied from the stratum corneum side and cultured for 24 hours. After removing the sample-containing PBS (−), the plate was washed with PBS (−). The medium was replaced with a fresh medium, 50 μL of sample-containing PBS (−) was newly applied from the stratum corneum side, and further cultured for 48 hours. After culturing, the culture supernatant was collected. The concentrations of CMP, 2Na in the respective samples were 0, 1.0, and 2.0 (w/v %), respectively. Normal human fibroblasts were treated with the culture supernatant by the same method as that of Example 1. RNA was extracted from NHDF using RNeasy Mini Kit (QIAGEN), and mRNA expression analysis for Fibrillin-1 (FBN-1) was performed by real time PCR ([…]). Glyceraldehyde 3-phosphate dehydrogenase (GAPDH) was used as an endogenous control.

[2] = tested on: elastin fibers in freshly extracted human skin; experiment: Ex vivo evaluation test using freshly extracted human skin, elastica-van Gieson staining of elastin fibers; conditions: abdominal skin, CMP, 2Na 1.0 and 2.0 (w/v %) applied from the stratum corneum side, 72 hours
Protocol: Abdominal skin tissue was used, which was taken from a patient during cosmetic surgery, after obtaining informed consent for use in research. The extracted skin was placed in a culture plate supplemented with 1.3 ml of D-MEM/Ham's F-12 medium, and conditioned overnight at 37° C. in 5% CO2. An appropriate amount of PBS (−) containing a given concentration of each sample was applied from the stratum corneum side, and further cultured for 24 hours. The treatment was continued for a total of 72 hours while replacing the sample and medium with fresh ones every 24 hours. The concentrations of CMP, 2Na in the respective samples were 0, 1.0, and 2.0 (w/v %). After the cultured skin tissue was fixed according to a standard method, skin tissue sections were prepared, elastin fibers were stained with elastica-van Gieson stain, and observed under a microscope.

[3] = tested on: fibrillin-1 production in normal human fibroblasts (NHDF); experiment: Fibrillin-1 quantification by ELISA, direct treatment of normal human fibroblasts with sample; format: cell-based; conditions: Example 1, FIG. 1 versus FIG. 2 (direct treatment and K-CM)
Protocol: Normal human fibroblasts (NHDF; Kurabo) were seeded in a 96-well plate at a density of 2.55×10^4 cells/well/100 μL and cultured at 37° C. for 24 hours. The medium was then replaced with 100 μL of media (HuMedia-KG2; Kurabo) adjusted to contain 0, 2.5, 5 (mM) (i.e., 0, 0.0918, 0.184 (w/v %) ) of CMP, 2Na and 0, 2.5, 5 (MM) (i.e., 0, 0.092, 0.184 (w/v %) ) of UMP, 2Na, and cultured for 24 hours.
The culture supernatant from normal human fibroblasts was collected and an amount of fibrillin-1 was quantified by ELISA. The protein amount of the culture supernatant was also measured by BCA protein assay.

Nc1ccn([C@@H]2O[C@H](COP(=O)(O)O)[C@@H](O)[C@H]2O)c(=O)n1 [cytidylic acid]
expression level of FBN-1 mRNA [1]: increased, depending on the concentration | density of elastin fibers (elastica-van Gieson staining) [2]: tended to result in denser elastin fibers | effect of promoting fibrillin production, cytidylic acid treatment compared with uridylic acid treatment [3]: comparable

O=c1ccn([C@@H]2O[C@H](COP(=O)(O)O)[C@@H](O)[C@H]2O)c(=O)[nH]1 [uridylic acid]
effect of promoting fibrillin production, cytidylic acid treatment compared with uridylic acid treatment [3]: comparable
